The supplement of paper PMC10307832

Tests used:
Assay in all cases: relative viability (nuclei count vs DMSO), 5 days (fraction); higher = more cells survive
[1] = compound: CC(C)C[C@H](NC(=O)[C@H](Cc1ccccc1)NC(=O)c1cnccn1)B(O)O [Bortezomib] + NC(=O)Nc1cc(-c2cccc(F)c2)sc1C(=O)N[C@H]1CCCNC1 [AZD7762] (partner 0.2 µM)
Method in brief: (§1)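 Relative viability is defined as nuclei in treated wells over nuclei in vehicle wells. Duplicate plates were run and medians reported. Lung cancer cell lines in 1536-well plates were dosed by pin tool one day after seeding, with one drug or with a fixed anchor-drug dose plus five library-drug doses (not always all listed) in √10 steps, and nuclei were counted after 5 days.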

[2] = compound: CC1=CC(=NN1)NC2=CC(=NC(=N2)/C=C/C3=CC=CC=C3)N4CCN(CC4)C + CS(=O)(=O)N1CCN(Cc2cc3nc(-c4cccc5[nH]ncc45)nc(N4CCOCC4)c3s2)CC1 [Pictilisib] (partner 1 µM)
Method in brief: as §1

[3] = compound: CC(C)C[C@H](NC(=O)[C@H](Cc1ccccc1)NC(=O)c1cnccn1)B(O)O [Bortezomib] + N=C(N)NC(=N)NCCc1ccccc1 [Phenformin] (partner 250 µM)
Method in brief: as §1

[4] = compound: COC1=CC(c2cc3ccccc3[nH]2)=N/C1=C\c1[nH]c(C)cc1C [Obatoclax] + CS(=O)(=O)CCNCc1ccc(-c2ccc3ncnc(Nc4ccc(OCc5cccc(F)c5)c(Cl)c4)c3c2)o1 [Lapatinib] (partner 2 µM)
Method in brief: as §1

Cell Line	relative viability ([1]; first compound 0.0002 µM)	relative viability ([1]; first compound 0.000632 µM)	relative viability ([1]; first compound 0.002 µM)	relative viability ([1]; first compound 0.006325 µM)	relative viability ([1]; first compound 0.02 µM)	relative viability ([2]; first compound 0.08 µM)	relative viability ([2]; first compound 0.253 µM)	relative viability ([2]; first compound 0.8 µM)	relative viability ([2]; first compound 2.53 µM)	relative viability ([2]; first compound 8 µM)	relative viability ([3]; first compound 0.0002 µM)	relative viability ([3]; first compound 0.000632 µM)	relative viability ([3]; first compound 0.002 µM)	relative viability ([3]; first compound 0.006325 µM)	relative viability ([3]; first compound 0.02 µM)	relative viability ([4]; first compound 0.01 µM)	relative viability ([4]; first compound 0.03162 µM)	relative viability ([4]; first compound 0.1 µM)	relative viability ([4]; first compound 0.3162 µM)	relative viability ([4]; first compound 1 µM)
NCI-H1355	0.794	0.721	0.922	0.293	0.133	0.412	0.36	0.395	0.263	0.118	0.446	0.414	0.493	0.381	0.176	1.06	0.886	0.838	0.862	0.921
NCI-H1395	0.381	0.393	0.385	0.323	0.304	0.668	0.669	0.583	0.379	0.239	0.477	0.435	0.446	0.361	0.27	1	0.943	0.79	1.09	0.592
NCI-H1437	1.09	1.11	1.04	0.496	0.194	0.57	0.446	0.416	0.271	0.0592	0.385	0.28	0.278	0.129	0.133	0.755	0.859	0.712	0.707	0.433
NCI-H1651	0.451	0.474	0.485	0.507	0.131	0.656	0.622	0.583	0.201	0.0876	0.354	0.312	0.229	0.101	0.106	0.645	0.764	0.744	0.664	0.341
NCI-H1666	0.849	0.935	0.817	0.592	0.333	0.494	0.389	0.358	0.325	0.176	0.533	0.544	0.559	0.365	0.307	0.868	0.682	0.469	0.273	0.291
NCI-H1734	0.563	0.541	0.57	0.116	0.0989	0.463	0.422	0.456	0.214	0.122	0.454	0.37	0.356	0.155	0.105	1.04	0.994		0.661	0.706
NCI-H1755	0.442	0.425	0.508	0.287	0.2	0.418	0.351	0.419	0.195	0.0971	0.683	0.596	0.592	0.23	0.229	1.04	1.03	0.81	1.07	0.995
NCI-H1792	0.657	0.693	0.602	0.344	0.0353	0.268	0.259	0.293	0.205	0.0778	0.534		0.173	0.0935	0.0823	0.945	0.796		0.869	0.885
NCI-H1793	0.512		0.394	0.803	0.0834	0.229	0.235	0.306	0.293	0.116	0.366	0.242	0.368	0.344	0.169	0.802	0.68	0.61	0.717	0.836
NCI-H1915	0.751	0.726	0.715	0.163	0.0511	0.948	0.674	0.885	0.571	0.289	0.361	0.356	0.371	0.147	0.0571	1.03	0.879	0.852	0.978	0.925
NCI-H1944	0.508	0.511	0.637	0.295	0.166	0.317	0.34	0.348	0.281	0.223	0.198	0.185	0.213	0.201	0.155	0.904	0.659	0.791	0.794	0.787
NCI-H1975	0.727	0.652	0.319	0.172	0.194	0.284	0.307	0.25	0.128	0.0893	0.405	0.35	0.115	0.0978	0.106	1.01	0.823	0.649	0.825	0.341
NCI-H1993	0.838	0.877		0.333	0.324	0.817		0.744	0.808	0.599	0.489	0.458	0.512	0.419	0.464	0.809	0.771	0.835	0.755	0.865
NCI-H2085	1.04	0.907	1.07	0.881	0.225	0.437	0.39	0.431	0.18	0.236	0.757	0.826	0.693	0.318	0.16	0.808	0.695	0.686	0.533	0.394
NCI-H2087	1.3	1.23	1.19	0.0709	0.0403	0.828	0.542	0.877	0.447	0.141	0.451	0.441	0.312	0.0487	0.0431	0.954	0.901	0.776	0.623	0.304
NCI-H2126	1	1.01	0.968	0.942	0.516	0.499	0.461	0.522	0.482	0.338	0.528	0.534	0.538	0.34	0.256	0.736	0.733	0.809	0.739	0.802
